Assay results reported in patent US10532986B2, “Cyclic compound acting as PDE4 inhibitor” (MEDSHINE DISCOVERY INC., priority 2016, dated 2020).

These compounds were tested against T1, Recombinant human PDE4B (Homo sapiens, UniProt Q07343) (assay: Inhibitory activity of the compounds against PDE 4B (fluorescence polarization, Transcreener AMP2/GMP2)). Settings: recombinant human PDE4B (aa 305-end, GST tag); 1 μM cAMP; 1 hour at room temperature.
T1 construct: amino acid 305-end; GST (N); made in house; host or cells: Sf9 insect cells (baculovirus)
Type: biochemical
Description: Inhibitory activity of the compounds against PDE 4B
The assay is based on the fluorescence polarization measuring AMP/GMP production as a result of the enzyme activity by displacement of Tracer binding to the AMP/GMP antibody.
10 mM Tris-HCl (pH 7.5), 5 mM MgCl2, 0.01% Brij 35, 1 mM DTT and 1% DMSO.
Recombinant human PDE4B (Gene accession number: NM_002600; amino acid 305-end) was expressed by baculovirus in Sf9 insect cells using an N-terminal GST tag. MW=78 kDa.
Transcreener® AMP^2/GMP^2 antibody and AMP^2/GMP^2 AlexaFluor 633 tracer
i) Recombinant human PDE4B and the enzyme substrate (1 μM cAMP) were dissolved in the newly-prepared buffer solution, respectively.
ii) The PDE4B buffer solution defined as above was transferred into the reaction wells.
iii) The compound which was dissolved in 100% DMSO was added to the reaction wells of the PDE4B buffer solution by Acoustic technology (Echo550; nanoliter range) and incubated at room temperature for 10 minutes.
iv) The enzymatic buffer solution was then added to the reaction wells defined as above to initiate the reaction.
v) The reaction was incubated at room temperature for 1 hour.
vi) The reaction was terminated by adding detecting mixture (Transcreener® AMP^2/GMP^2 antibody and AMP^2/GMP^2 AlexaFluor 633 tracer) and incubated for 90 minutes with gentle mixing. The measurement range of fluorescence polarization is Ex/Em=620/688.
The fluorescence polarization signal was converted into nM based on the AMP/GMP standard curve and the percent enzyme activity relative to DMSO calculated by Excel. GraphPad Prism was used to plot the curves (Drawing Medicine Icon)

T1 sequence (Q07343 305-736 limits assumed): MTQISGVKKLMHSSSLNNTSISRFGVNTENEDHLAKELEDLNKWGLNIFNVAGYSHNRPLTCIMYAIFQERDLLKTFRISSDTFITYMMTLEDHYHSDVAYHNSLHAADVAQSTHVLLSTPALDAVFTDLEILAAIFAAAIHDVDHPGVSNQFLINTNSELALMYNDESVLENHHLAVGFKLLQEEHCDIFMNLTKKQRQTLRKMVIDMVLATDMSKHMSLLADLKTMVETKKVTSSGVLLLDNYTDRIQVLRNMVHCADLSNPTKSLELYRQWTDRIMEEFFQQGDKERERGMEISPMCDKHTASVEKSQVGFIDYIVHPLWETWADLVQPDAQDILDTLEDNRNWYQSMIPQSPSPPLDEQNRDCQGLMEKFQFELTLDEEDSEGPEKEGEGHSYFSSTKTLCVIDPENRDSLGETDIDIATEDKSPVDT

Row | SMILES | IC50 [nM]
1 | CCOc1cc([C@@H](CS(C)(=O)=O)n2c(=O)[nH]c3cc(Br)cc(F)c32)ccc1OC [WX001] | 3.68
2 | CCOc1cc([C@@H](CS(C)(=O)=O)n2c(=O)[nH]c3cc(C(F)(F)F)ccc32)ccc1OC [WX002] | 6.27
3 | CCOc1cc([C@@H](CS(C)(=O)=O)n2c(=O)[nH]c3cc(Cl)ccc32)ccc1OC [WX003] | 2.22
4 | CCOc1cc([C@@H](CS(C)(=O)=O)n2c(=O)[nH]c3cc(F)ccc32)ccc1OC [WX004] | 11.5
5 | CCOc1cc([C@@H](CS(C)(=O)=O)n2c(=O)[nH]c3cc(F)cc(F)c32)ccc1OC [WX005] | 92.4
6 | CCOc1cc([C@@H](CS(C)(=O)=O)n2c(=O)[nH]c3cc(C(F)(F)F)cc(F)c32)ccc1OC [WX006] | 25.7
7 | CCOc1cc([C@@H](CS(C)(=O)=O)n2c(=O)[nH]c3c(Br)cccc32)ccc1OC [WX007] | 9.2
8 | CCOc1cc([C@@H](CS(C)(=O)=O)n2c(=O)[nH]c3c(Cl)cccc32)ccc1OC [WX008] | 22.3
9 | CCOc1cc([C@@H](CS(C)(=O)=O)n2c(=O)[nH]c3cc(Br)ccc32)ccc1OC [WX009] | 6.29
10 | CCOc1cc([C@@H](CS(C)(=O)=O)n2c(=O)[nH]c3ccccc32)ccc1OC [WX010] | 19.5
11 | CCOc1cc([C@@H](CS(C)(=O)=O)n2c(=O)[nH]c3cc(-c4ccccc4F)ccc32)ccc1OC [WX011] | 0.526
12 | CCOc1cc([C@@H](CS(C)(=O)=O)n2c(=O)[nH]c3cc(-c4cccc(F)c4)ccc32)ccc1OC [WX012] | 2.18
13 | CCOc1cc([C@@H](CS(C)(=O)=O)n2c(=O)[nH]c3cc(-c4ccc(F)cc4)ccc32)ccc1OC [WX013] | 6.11
14 | CCOc1cc([C@@H](CS(C)(=O)=O)n2c(=O)[nH]c3cc(-c4ccccc4C)ccc32)ccc1OC [WX014] | 0.606
15 | CCOc1cc([C@@H](CS(C)(=O)=O)n2c(=O)[nH]c3cc(-c4ccccc4Cl)ccc32)ccc1OC [WX015] | 0.676
16 | CCOc1cc([C@@H](CS(C)(=O)=O)n2c(=O)[nH]c3cc(-c4ccccc4OC)ccc32)ccc1OC [WX016] | < 0.5
17 | CCOc1cc([C@@H](CS(C)(=O)=O)n2c(=O)[nH]c3cc(-c4ccccc4C(F)(F)F)ccc32)ccc1OC [WX017] | < 0.5
18 | CCOc1cc([C@@H](CS(C)(=O)=O)n2c(=O)[nH]c3cc(-c4ccccc4C(C)C)ccc32)ccc1OC [WX018] | < 0.5
19 | CCOc1cc([C@@H](CS(C)(=O)=O)n2c(=O)[nH]c3cc(-c4ccccc4CC)ccc32)ccc1OC [WX019] | < 0.5
20 | CCOc1cc([C@@H](CS(C)(=O)=O)n2c(=O)n(C3CC3)c3cc(Cl)ccc32)ccc1OC [WX020] | 12.6
21 | CCOc1cc([C@@H](CS(C)(=O)=O)n2c(=O)n(C3CC3)c3cc(F)ccc32)ccc1OC [WX021] | 64.4
22 | CCOc1cc([C@@H](CS(C)(=O)=O)n2c(=O)n(C3CC3)c3cc(C(F)(F)F)ccc32)ccc1OC [WX022] | 39.5
23 | CCOc1cc([C@@H](CS(C)(=O)=O)n2c(=O)n(C3CC3)c3cc(-c4ccccc4F)ccc32)ccc1OC [WX023] | 1.89

Row | SMILES | IC50 [nM]
24 | CCOc1cc([C@@H](CS(C)(=O)=O)n2c(=O)[nH]c3cc(-c4ccccc4OCC)ccc32)ccc1OC [WX024] | < 0.5
25 | CCOc1cc([C@@H](CS(C)(=O)=O)n2c(=O)[nH]c3cc(-c4ncccc4F)ccc32)ccc1OC [WX025] | 1.42
26 | CCOc1cc([C@@H](CS(C)(=O)=O)n2c(=O)[nH]c3cc(-c4nccnc4C)ccc32)ccc1OC [WX026] | 8.44
27 | CCOc1cc([C@@H](CS(C)(=O)=O)n2c(=O)[nH]c3cc(-c4nnccc4C)ccc32)ccc1OC [WX027] | 17.8
28 | CCOc1cc([C@@H](CS(C)(=O)=O)n2c(=O)[nH]c3cc(-c4ccccc4C#N)ccc32)ccc1OC [WX028] | < 0.5
29 | CCOc1cc([C@@H](CS(C)(=O)=O)n2c(=O)[nH]c3cc(-c4nccnc4N(C)C)ccc32)ccc1OC [WX029] | < 0.5
30 | CCOc1cc([C@@H](CS(C)(=O)=O)n2c(=O)[nH]c3cc(-c4nccnc4C4CC4)ccc32)ccc1OC [WX030] | 1.31
31 | CCOC(=O)c1ccc2c(c1)[nH]c(=O)n2[C@H](CS(C)(=O)=O)c1ccc(OC)c(OCC)c1 [WX031] | 3.3
32 | CCOc1cc([C@@H](CS(C)(=O)=O)n2c(=O)[nH]c3cc(C(=O)OC(C)C)ccc32)ccc1OC [WX032] | 2.05
33 | CCOc1cc([C@@H](CS(C)(=O)=O)n2c(=O)[nH]c3cc(C(=O)OCC(F)(F)F)ccc32)ccc1OC [WX033] | 1.1
34 | CCOc1cc([C@@H](CS(C)(=O)=O)n2c(=O)[nH]c3cc(C(=O)O)ccc32)ccc1OC [WX034] | 22.4
35 | CCOc1cc([C@@H](CS(C)(=O)=O)n2c(=O)[nH]c3cc(C(=O)CC)ccc32)ccc1OC [WX035] | 8.3
36 | CCOc1cc([C@@H](CS(C)(=O)=O)n2c(=O)n(CC(F)F)c3cc(Cl)ccc32)ccc1OC [WX036] | 9.12
37 | CCOc1cc([C@@H](CS(C)(=O)=O)n2c(=O)n(CC(F)(F)F)c3cc(Cl)ccc32)ccc1OC [WX037] | 10.8
38 | CCOc1cc([C@@H](CS(C)(=O)=O)n2c(=O)n(C)c3cc(Cl)ccc32)ccc1OC [WX038] | 7.99
39 | CCOc1cc([C@@H](CS(C)(=O)=O)n2c(=O)n(CC)c3cc(Cl)ccc32)ccc1OC [WX039] | 9.96
40 | CCOc1cc([C@@H](CS(C)(=O)=O)n2c(=O)n(CC3CC3)c3cc(Cl)ccc32)ccc1OC [WX040] | 7.54
41 | CCOc1cc([C@@H](CS(C)(=O)=O)n2c(=O)n(CC3CCC3)c3cc(Cl)ccc32)ccc1OC [WX041] | 11.9
42 | CCOc1cc([C@@H](CS(C)(=O)=O)n2c(=O)n(CCOC)c3cc(Cl)ccc32)ccc1OC [WX042] | 6.83
43 | CCOc1cc([C@@H](CS(C)(=O)=O)n2c(=O)n(CCO)c3cc(Cl)ccc32)ccc1OC [WX043] | 4.5
44 | CCOc1cc([C@@H](CS(C)(=O)=O)n2c(=O)n(C(C)C)c3cc(Cl)ccc32)ccc1OC [WX044] | 5.12
45 | CCOc1cc([C@@H](CS(C)(=O)=O)n2c(=O)n(CC#N)c3cc(Cl)ccc32)ccc1OC [WX045] | 3.56
46 | CCOc1cc([C@@H](CS(C)(=O)=O)n2c(=O)n(CC(F)F)c3cc(F)ccc32)ccc1OC [WX046] | 10.1

Row | SMILES | IC50 [nM]
47 | CCOc1cc([C@@H](CS(C)(=O)=O)n2c(=O)n(CC(F)(F)F)c3cc(F)ccc32)ccc1OC [WX047] | 44.9
48 | CCOc1cc([C@@H](CS(C)(=O)=O)n2c(=O)n(C)c3cc(F)ccc32)ccc1OC [WX048] | 57.8
49 | CCOc1cc([C@@H](CS(C)(=O)=O)n2c(=O)n(CC#N)c3cc(F)ccc32)ccc1OC [WX049] | 11.4
50 | CCOc1cc([C@@H](CS(C)(=O)=O)n2c(=O)n(CCO)c3cc(F)ccc32)ccc1OC [WX050] | 30.6
51 | CCOc1cc([C@@H](CS(C)(=O)=O)n2c(=O)n(CC(F)F)c3cc(C(F)(F)F)ccc32)ccc1OC [WX051] | 26.9
52 | CCOc1cc([C@@H](CS(C)(=O)=O)n2c(=O)n(CC(F)(F)F)c3cc(C(F)(F)F)ccc32)ccc1OC [WX052] | 13.7
53 | CCOc1cc([C@@H](CS(C)(=O)=O)n2c(=O)n(C)c3cc(C(F)(F)F)ccc32)ccc1OC [WX053] | 26.4
54 | CCOc1cc([C@@H](CS(C)(=O)=O)n2c(=O)n(CC)c3cc(C(F)(F)F)ccc32)ccc1OC [WX054] | 13.2
55 | CCOc1cc([C@@H](CS(C)(=O)=O)n2c(=O)n(CC#N)c3cc(C(F)(F)F)ccc32)ccc1OC [WX055] | 21.2
56 | CCOc1cc([C@@H](CS(C)(=O)=O)n2c(=O)n(CCO)c3cc(C(F)(F)F)ccc32)ccc1OC [WX056] | 4.28
57 | CCOc1cc([C@@H](CS(C)(=O)=O)n2c(=O)n(C)c3cc(F)cc(F)c32)ccc1OC [WX057] | 99.6
58 | CCOc1cc([C@@H](CS(C)(=O)=O)n2c(=O)n(CC#N)c3cc(F)cc(F)c32)ccc1OC [WX058] | 8.46
59 | CCOc1cc([C@@H](CS(C)(=O)=O)n2c(=O)n(CCO)c3cc(F)cc(F)c32)ccc1OC [WX059] | 68.3
60 | CCOc1cc([C@@H](CS(C)(=O)=O)n2c(=O)n(Cc3ccccc3F)c3cc(C(F)(F)F)cc(F)c32)ccc1OC [WX060] | 34.4
61 | CCOc1cc([C@@H](CS(C)(=O)=O)n2c(=O)n(CC(F)F)c3c(Cl)cccc32)ccc1OC [WX061] | 39
62 | CCOc1cc([C@@H](CS(C)(=O)=O)n2c(=O)n(CC(F)(F)F)c3c(Cl)cccc32)ccc1OC [WX062] | 54.9
63 | CCOc1cc(C(CS(C)(=O)=O)n2c(=O)n(CCS(C)(=O)=O)c3cc(Br)ccc32)ccc1OC (stereo not shown) [WX063] | 20.8
64 | CCOc1cc([C@@H](CS(C)(=O)=O)n2c(=O)n(Cc3ccccc3F)c3cc(Br)ccc32)ccc1OC [WX064] | 0.91
65 | CCOc1cc([C@@H](CS(C)(=O)=O)n2c(=O)n(Cc3cccc(F)c3)c3cc(Br)ccc32)ccc1OC [WX065] | 1.43
66 | CCOc1cc([C@@H](CS(C)(=O)=O)n2c(=O)n(Cc3ccc(F)cc3)c3cc(Br)ccc32)ccc1OC [WX066] | 1.54
67 | CCOc1cc([C@@H](CS(C)(=O)=O)n2c(=O)n(Cc3ccccc3F)c3ccccc32)ccc1OC [WX067] | 10.1
